Literature values in US20080063781A1, “Globin Digest Containing, Yeast-Fermented Beverages” (Suntory Limited, priority 2004, published 2008).

System: serum triglyceride levels
Settings: reported in JP 9-255698 A

Substance: Val-Val-Tyr-Pro (VVYP; printed: Val-Val-Tyr-Pro)
- suppressive activity against the elevation of serum triglyceride levels: strong suppressive activity against the elevation of serum triglyceride levels

Substance: Val-Thr-Leu [VTL]
- suppressive activity against the elevation of serum triglyceride levels: strong suppressive activity against the elevation of serum triglyceride levels
